Experimental findings from US20240068044A1, “MARKER COMPOSITION FOR PREDICTING PROGNOSIS OF CANCER, METHOD FOR PROGNOSIS OF CANCER AND METHOD FOR PROVIDING INFORMATION FOR DETERMINING STRATEGY OF CANCER TREATMENT” (priority 2021, published 2024) are described below.

For the assay, the system named is gastric cancer patients. Put plainly: Multivariable Cox proportional analysis of overall survival: adjuvant chemotherapy vs surgery only, Yonsei cohort, within each molecular subtype. The following applies: multivariate Cox. The format is in vivo. From the text:
It has been examined whether the molecular subtype of the present disclosure may predict the response to the systemic therapy. The Yonsei cohort included patients treated prior to establishment of adjuvant chemotherapy as standard of care. Thus, patients who have been treated with one of the following three assisted chemical therapy methods were able to compare patients who have undergone surgery only:
5-Fluorouracil (5-FU) Alone Therapy
5-FU and Platinum Doublet
Treatment of Systemic Therapy of Another Class in Addition to 5-FU
The inventors of the present disclosure performed a multivariable Cox proportional analysis of the overall survival rate, assisted chemical therapy, cancer operation, age, lymphovascular attack and perineuronal attack as covariates within each genetic group.
In Table 3, the hazard ratio (HR) was calculated using age, cancer stage, Lauren type, neural surrounding invasion state, and chemotherapy treatment as a regulator.

As for `O=c1[nH]cc(F)c(=O)[nH]1` [5-FU alone, 5-Fluorouracil], the “Hazard Ratio (95% CI)” value is, setting by setting: (Patient Group 1, VS no-chemotherapy) 2.25 (0.61, 8.35); (Patient Group 2, VS no-chemotherapy) 0.37 (0.14, 0.99); (Patient Group 2, VS no-chemotherapy, listed as 5-FU monotherapy) 0.37; (Patient Group 3, VS no-chemotherapy) 0.99 (0.41, 2.38); (Patient Group 4, VS no-chemotherapy) 0.73 (0.30, 1.79).
